Measured values taken from PMC12041881, “Tailored phenyl ureas eradicate drug-resistant Mycobacterium tuberculosis by targeting mycolic acid cell wall assembly” (Chemical Science, 2025).
Converted amounts (≈) assume the structure as drawn. “Also recorded” adds a separate entry of the source. Where two headings read alike, the source gives them in different places.

Key:
M. tuberculosis H37Ra = assay: microbe, parasite or virus in culture; format: cell-based, Mycobacterium tuberculosis; details: for MIC: Mycobacterium tuberculosis, H37RA, read-out: MIC MTB H37Ra
MmpL3 = MmpL3 (Mycobacterium tuberculosis, UniProt P9WJV5); format: cell-based, M. tuberculosis
physchem = details: aqueous buffer, kinetic from dmso stock
[1] = test system: probe-bound proteins in M. tuberculosis H37Ra cells; format: binding; details: for competition of 227-p1 labelling of EphF and EphD: 5 μM 227-p1, competitor in excess (25 μM 227)
[2] = test system: three bacterial strains from the mouse microbiota (Oligo-Mouse-Microbiota); assay: MIC measurements in strains from the Oligo-Mouse-Microbiota; format: cell-based
WT M. tuberculosis H37Rv = assay: microbe, parasite or virus in culture; format: cell-based
in vivo [3] = details: female, CD-1, mouse
HeLa cells = assay: cells; format: cell-based; details: Homo sapiens
[4] = i.v. 5 mg kg^−1
epoxide hydrolase EphF = format: biochemical, M. tuberculosis
in vitro = details: mouse, microsomes
Mtb H37Ra proteome = format: cell-based
MTB [5] = assay: Checkerboard assay with ethionamide; format: cell-based, M. tuberculosis; details: combination with ethionamide
[6] = test system: M. tuberculosis H37Ra cells; format: cell-based
in vivo [7] = assay: in vivo; design: species or system CD-1 female mice; details: female, CD-1, mouse; for bioavailability: F
Protocol: (DMA), and 95% (20% Solutol HS15 in water).
Blood timepoints were taken
liquid chromatography coupled to tandem mass spectrometry. Pharmacokinetic parameters were
LC-MS/MS analytical methods for PK studies
to create standard curves solutions.
10µLs of control, standard, or
internal standards Labetalol (Sigma Aldrich). Extracts were vortexed for 5 minutes and centrifuged at
with 75 µLs of Milli-Q deionized water.
Multiple-reaction monitoring of […]
Extracts were vortexed for 5 minutes
75 µL of extract was combined
HPLC-MS was performed as previously specified.

M. smegmatis DSM43756 = assay: MIC / in-house urea library screen against M. smegmatis; format: cell-based; details: read-out: MIC M. smegmatis (Msm)
[8] = test system: MmpL3 underexpressing (−ATc) Mtb H37Rv; format: cell-based, M. tuberculosis
LepB = assay: FRET assay with membrane-bound LepB; details: M. smegmatis membranes
Mtb [9] = details: strain not stated; cited from earlier work
[10] = Mycobacterium tuberculosis, H37RV
[11] = HeLa, read-out: MTT assay IC50 95% confidence interval (CI)
[12] = Mycolicibacterium smegmatis, DSM43756

MmpL3, sequence (P9WJV5 whole entry): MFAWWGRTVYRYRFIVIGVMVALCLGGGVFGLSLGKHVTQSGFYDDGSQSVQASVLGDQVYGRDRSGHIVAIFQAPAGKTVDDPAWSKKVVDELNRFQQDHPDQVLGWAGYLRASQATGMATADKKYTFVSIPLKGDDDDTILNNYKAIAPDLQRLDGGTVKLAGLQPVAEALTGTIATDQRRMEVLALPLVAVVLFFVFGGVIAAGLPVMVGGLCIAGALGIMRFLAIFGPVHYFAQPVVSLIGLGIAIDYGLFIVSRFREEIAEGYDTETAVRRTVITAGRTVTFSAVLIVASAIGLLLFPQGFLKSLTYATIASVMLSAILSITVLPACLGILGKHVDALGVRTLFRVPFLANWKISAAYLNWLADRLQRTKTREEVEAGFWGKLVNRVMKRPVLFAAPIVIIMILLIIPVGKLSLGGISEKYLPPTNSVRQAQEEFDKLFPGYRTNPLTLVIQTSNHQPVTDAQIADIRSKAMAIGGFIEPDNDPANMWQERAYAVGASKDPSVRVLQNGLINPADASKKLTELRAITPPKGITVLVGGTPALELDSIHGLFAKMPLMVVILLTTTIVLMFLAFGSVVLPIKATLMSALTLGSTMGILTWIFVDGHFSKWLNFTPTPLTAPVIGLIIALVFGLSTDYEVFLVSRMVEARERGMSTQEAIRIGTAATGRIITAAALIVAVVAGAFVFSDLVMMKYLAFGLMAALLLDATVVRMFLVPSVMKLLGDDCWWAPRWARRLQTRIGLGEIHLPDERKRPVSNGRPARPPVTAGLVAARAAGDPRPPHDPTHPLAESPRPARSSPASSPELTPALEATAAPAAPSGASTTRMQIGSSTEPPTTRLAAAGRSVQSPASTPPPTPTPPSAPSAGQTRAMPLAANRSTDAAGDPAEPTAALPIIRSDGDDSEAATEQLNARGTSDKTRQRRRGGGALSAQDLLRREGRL

For O=C(Nc1ccc(Cl)c(OC(F)(F)F)c1)NC1CCCCC1 [Compound 1], the MIC (M. tuberculosis H37Ra) was 3.13 µM (≈ 1.05 µg/mL).

In the case of O=C(Nc1cc(C(F)(F)F)c(Cl)cn1)NC1CCCCC1 [Compound 2], the MIC (M. tuberculosis H37Ra) is reported as greater than 50 µM.

With CC1(NC(=O)Nc2ccc(Cl)c(C(F)(F)F)c2)CCCC1 [Compound 3] the “MIC MTB H37Ra” value (M. tuberculosis H37Ra) was 0.39 µM (≈ 0.125 µg/mL) and the MIC (M. tuberculosis H37Ra) was 0.4 µM (≈ 0.128 µg/mL).

Molecule CC1(NC(=O)Nc2ccc(F)c(C(F)(F)F)c2)CCCC1 [Compound 4] has an MIC (M. tuberculosis H37Ra) of 3.13 µM (≈ 0.952 µg/mL).

Molecule CC1(NC(=O)Nc2ccccc2)CCCC1 [Compound 5] has an MIC (M. tuberculosis H37Ra) of 25 µM (≈ 5.46 µg/mL).

For CC1(NC(=O)Nc2ccc(F)c(F)c2F)CCCC1 [Compound 6], the MIC (M. tuberculosis H37Ra) was greater than 50 µM.

For CC1(NC(=O)Nc2ccc(F)c(F)c2)CCCC1 [Compound 7], the MIC (M. tuberculosis H37Ra) was 25 µM (≈ 6.36 µg/mL).

CC1(NC(=O)Nc2cc(F)c(F)c(F)c2)CCCC1 [Compound 8] showed an MIC (M. tuberculosis H37Ra) of 25 µM (≈ 6.81 µg/mL).

For O=C(Nc1ccc(Cl)c(C(F)(F)F)c1)NC1CCCC1 [Compound 9], the “MIC MTB H37Ra” value (M. tuberculosis H37Ra) was 3.13 µM (≈ 0.96 µg/mL) and the MIC (M. tuberculosis H37Ra) was 3.2 µM (≈ 0.981 µg/mL).

In the case of O=C(Nc1ccc(Cl)c(C(F)(F)F)c1)NC1CCC1 [Compound 10], the MIC (M. tuberculosis H37Ra) is reported as 25 µM (≈ 7.32 µg/mL).

With O=C(Nc1ccc(Cl)c(C(F)(F)F)c1)NC1CC1 [Compound 11] the MIC (M. tuberculosis H37Ra) was greater than 50 µM.

For CC1(NC(=O)Nc2ccc(Cl)c(C(F)(F)F)c2)CCCCC1 [Compound 12], the “TDM/TMM ratio compared with 227” value (MmpL3) was “even lower TDM/TMM ratios”, the “MIC MTB H37Ra” value (M. tuberculosis H37Ra) was 0.10 µM (≈ 0.0335 µg/mL) and the MIC (M. tuberculosis H37Ra) was 0.1 µM (≈ 0.0335 µg/mL). The solubility kinetic at 5 min (physchem) was 12 µM (≈ 4.02 µg/mL), the “competition of 227-p1 labelling of EphF and EphD” value (“competition” for short) [1] was “weaker competition” and the “effect on bacteria from the Oligo-Mouse-Microbiota” value [2] was “not affected”. For the same molecule, the IC50 (WT M. tuberculosis H37Rv; [10]) was 0.11 µM and the MIC90 (WT M. tuberculosis H37Rv; [10]) was 0.2 µM (≈ 0.067 µg/mL).

CC1CCCCC1NC(=O)Nc1ccc(Cl)c(C(F)(F)F)c1 (centres unmarked) [Compound 13] showed an MIC (M. tuberculosis H37Ra) of 0.39 µM (≈ 0.131 µg/mL).

In the case of CC1CCCC(NC(=O)Nc2ccc(Cl)c(C(F)(F)F)c2)C1 (centres unmarked) [Compound 14], the MIC (M. tuberculosis H37Ra) is reported as 0.39 µM (≈ 0.131 µg/mL).

Work on CC1CCC(NC(=O)Nc2ccc(Cl)c(C(F)(F)F)c2)CC1 (centres unmarked) [Compound 15] yielded an MIC (M. tuberculosis H37Ra) of 0.39 µM (≈ 0.131 µg/mL).

In the case of O=C(Nc1ccc(Cl)c(C(F)(F)F)c1)NC1(CO)CCCCC1 [Compound 16], the MIC (M. tuberculosis H37Ra) is reported as 3.13 µM (≈ 1.1 µg/mL).

O=C(Nc1ccc(Cl)c(C(F)(F)F)c1)NC12CC3CC(CC(O)(C3)C1)C2 [Compound 18] showed an MIC (M. tuberculosis H37Ra) of 6.25 µM (≈ 2.43 µg/mL).

O=C(Nc1ccc(Cl)c(C(F)(F)F)c1)NC12CC(C1)C2 [Compound 19] gave an MIC (M. tuberculosis H37Ra) of 12.5 µM (≈ 3.81 µg/mL).

Molecule CC1(C)OCC(NC(=O)Nc2ccc(Cl)c(C(F)(F)F)c2)CO1 [Compound 20] has an MIC (M. tuberculosis H37Ra) of 3.13 µM (≈ 1.1 µg/mL).

In the case of O=C(Nc1ccc(Cl)c(C(F)(F)F)c1)NC1COC2(CCC2)OC1 [Compound 21], the AUC (in vivo [3]; iv, 5 mg/kg) is reported as 4.58 µM·h, the Cmax (in vivo [3]; iv, 5 mg/kg) is reported as 6.27 µM and the half-life (in vivo [3]; iv, 5 mg/kg) is reported as 46.2 min. It also gave an AUC (in vivo [3]; po, 25 mg/kg) of 9.54 µM·h, a Cmax (in vivo [3]; po, 25 mg/kg) of 4.04 µM and a bioavailability (in vivo [3]; po, 25 mg/kg) of 42.5%. It also gave an IC50 (HeLa cells; [11]) of 52 to 97 µM, an IC50 (HeLa cells; HeLa cells, 24 h, read-out: IC50 MTT assay) of 71 µM and a CD [4] of 3.38 L/kg. The Clearance [4] was 50.82 mL/(kg*min], the EphF inhibition (epoxide hydrolase EphF) was “inhibits EphF, albeit to a lesser extent” and the “TDM/TMM ratio compared with 227” value (MmpL3) was “even lower TDM/TMM ratios”. For the same molecule, the “MIC MTB H37Ra” value (M. tuberculosis H37Ra) was 0.78 µM (≈ 0.285 µg/mL), the MIC (M. tuberculosis H37Ra) was 0.8 µM (≈ 0.292 µg/mL) and the solubility kinetic at 5 min (physchem) was greater than 200 µM. The “competition” value [1] was “weaker competition”, the half-life at 5 µM (in vitro) was 8 min and the microsomal CLint at 5 µM (in vitro) was 88 µL/min/mg. The “MmpL3 abundance, Student's T-test Difference DMJB-04 0.5 µM vs DMSO” value (Mtb H37Ra proteome; full proteome, Mtb H37Ra, 0.5 µM) was 0.4086, the “fractional inhibitory concentration (FIC) index” value (MTB [5]) was 0.83 and the “effect on bacteria from the Oligo-Mouse-Microbiota” value [2] was “not affected; also recorded: does not kill”. For the same molecule, the IC50 (WT M. tuberculosis H37Rv; [10]) was 0.85 µM, the MIC90 (WT M. tuberculosis H37Rv; [10]) was 1.8 µM (≈ 0.657 µg/mL) and the “membrane disruption (propidium iodide entry)” value [6] was “Neither 227 nor 21 disrupt the membrane”. For the same molecule, the “estimated time above MIC” value (in vivo [7]) was “approximately 16 hours”, the F (in vivo [7]; po, 200 mg/kg) was 24.3% and the AUC (in vivo [7]; po, 200 mg/kg) was 45.7 µM·h. For the same molecule, the bioavailability (in vivo [7]; po, 200 mg/kg) was 25.3%, the AUC (in vivo [7]; po, 400 mg/kg) was 73.3 µM·h and the bioavailability (in vivo [7]; po, 400 mg/kg) was 20.4%.

For O=C(Nc1ccc(Cl)c(C(F)(F)F)c1)NC1CCC2(CC1)OCCO2 [Compound 22], the MIC (M. tuberculosis H37Ra) was 1.56 to 3.13 µM (≈ 0.591 to 1.19 µg/mL) and the solubility kinetic at 5 min (physchem) was 112 µM (≈ 42.4 µg/mL).

For CC1(NC(=O)Nc2ccc(Cl)c(C(F)(F)F)c2)COC2(CCC2)OC1 [Compound 23], the “MIC MTB H37Ra” value (M. tuberculosis H37Ra) was 6.25 to 12.5 µM, the MIC (M. tuberculosis H37Ra) was 6.25 µM (≈ 2.37 µg/mL) and the solubility kinetic at 5 min (physchem) was 58 µM (≈ 22 µg/mL).

For C#CCCC1(CCOC(=O)c2ccc(NC(=O)Nc3ccccc3)cc2)N=N1 [Compound 150-pi], the “MIC MTB H37Ra” value (M. tuberculosis H37Ra) was “inactive”.

In the case of C#CC1(NC(=O)Nc2ccc(N=[N+]=[N-])cc2)CCCCC1 [Compound 227-p1], the MIC (M. tuberculosis H37Ra) is reported as 25 µM (≈ 7.08 µg/mL), the “EphD and EphF enrichment by probe” value ([1]; 5 μM 227-p1, Mtb) is reported as “significantly enriched” and the MIC (M. smegmatis DSM43756; [12]) is reported as 6.25 µM (≈ 1.77 µg/mL).

In the case of C#CCCC1(CCOC(=O)c2ccc(NC(=O)NC3CCCCC3)cc2)N=N1 [Compound 227-p2], the MIC (M. tuberculosis H37Ra) is reported as greater than 50 µM and the MIC (M. smegmatis DSM43756; [12]) is reported as greater than 50 µM.

For C#CCCC1(CCOC(=O)C2CCC(NC(=O)Nc3ccc(Cl)c(C(F)(F)F)c3)CC2)N=N1 (centres unmarked) [Compound 227-p3], the MIC (M. tuberculosis H37Ra) was greater than 50 µM and the MIC (M. smegmatis DSM43756; [12]) was greater than 50 µM.

For O=C(Nc1ccc(Cl)c(C(F)(F)F)c1)NC1CCCCC1 [Compound 227], the bioavailability (in vivo [3]; po, 25 mg/kg) was 8.6%, the IC50 (HeLa cells; [11]) was 15 to 37 µM and the Clearance [4] was “fast clearance”. The EphF inhibition (epoxide hydrolase EphF) was “strong inhibition”, the MIC (M. tuberculosis H37Ra) was 1.56 to 3.13 µM (≈ 0.5 to 1 µg/mL) and the solubility kinetic at 5 min (physchem) was 55 µM (≈ 17.6 µg/mL). The “competition” value [1] was “strongly out-competed; also recorded: out-competed”, the MIC (WT M. tuberculosis H37Rv) was 1.8 µM (≈ 0.577 µg/mL) and the IC50 (WT M. tuberculosis H37Rv; [10]) was 1.3 µM. The MIC (WT M. tuberculosis H37Rv; [10]) was 1.8 µM (≈ 0.577 µg/mL), the MIC90 (WT M. tuberculosis H37Rv; [10]) was 2.5 µM (≈ 0.802 µg/mL) and the “membrane disruption (propidium iodide entry)” value [6] was “Neither 227 nor 21 disrupt the membrane”.

O=C(Nc1cc(C(F)(F)F)cc(C(F)(F)F)c1)Nc1ccc(Cl)c(OC(F)(F)F)c1 [Compound 275] gave an MIC (M. smegmatis DSM43756; [12]) of 0.8 µM (≈ 0.373 µg/mL).

For CC[C@@H](CO)NCCN[C@@H](CC)CO [Ethambutol], the “susceptibility shift in MmpL3 under-expressing strain” value [8] was “no significant shifts”.

For O=C(Nc1ccc2c(c1)OC(F)(F)O2)Nc1ccc(Cl)c(C(F)(F)F)c1 [PK150], the “modulation of LepB activity” value (LepB) is listed as “not a target; also recorded: did not show any inhibition”, the “MIC against Mtb” value (Mtb [9]) is listed as 6.25 µM (≈ 2.47 µg/mL) and the MIC (M. smegmatis DSM43756) is listed as 3.1 µM (≈ 1.22 µg/mL).

In the case of CC(C)=CCC/C(C)=C/CNCCNC1C2CC3CC(C2)CC1C3 (centres unmarked) [SQ109, reference compound], the “dysregulated in FP?” value (Mtb H37Ra proteome; full proteome (FP), protein Rv3587c (O53572), probable conserved membrane protein) is reported as “slightly upregulated with SQ109 treatment”.
